In paper PMC11272821, “Mechanistic safety assessment via multi-omic characterisation of systemic pathway perturbations following in vivo MAT2A inhibition” (Archives of Toxicology, 2024):

How the values were obtained:
A2A adenosine receptor = biological target: T1, A2A adenosine receptor (Homo sapiens, UniProt P29274); assay: Radioligand binding assay
T1 construct: Eurofins
Description: (§1) Secondary pharmacology assays were performed at Eurofins using standard experimental techniques against a total of 86 targets across a broad pharmacological space. Assay details along with experimental protocols are described at https://www.eurofinsdiscoveryservices.com. […] Assays measuring substrate turnover or phosphorylation by isolated proteins were used for kinase and enzyme targets, allowing direct determination of the mode of action of the compounds. […] Assays were run in eight points concentration response mode with half log dilutions and IC50, EC50 or Ki (Cheng and Prusoff [1973]) values determined.

M1 muscarinic receptor = biological target: T2, M1 muscarinic receptor (Homo sapiens, UniProt P11229); assay: Radioligand binding assay
T2 construct: Eurofins
Description: as §1

κ opioid receptor = biological target: T3, κ opioid receptor (Homo sapiens, UniProt P41145); assay: Radioligand binding assay
T3 construct: Eurofins
Description: as §1

A1 adenosine receptor = biological target: T4, A1 adenosine receptor (Homo sapiens, UniProt P30542); assay: Radioligand binding assay
T4 construct: purchased Eurofins
Description: as §1

δ opioid Receptor = biological target: T5, δ opioid Receptor (Homo sapiens, UniProt P41143); assay: Radioligand binding assay
T5 construct: Eurofins
Description: as §1

[1] = biological target: T6, CCK1 cholecystokinin receptor (Homo sapiens, UniProt P32238); assay: Radioligand binding assay
T6 construct: Eurofins
Description: as §1

[2] = biological target: T7, Noradrenaline Transporter (NET) (Homo sapiens, UniProt P23975); assay: Radioligand binding assay
T7 construct: Eurofins
Description: as §1

[3] = biological target: T8, Dopamine transporter (DAT) (Homo sapiens, UniProt Q01959); assay: Radioligand binding assay
T8 construct: Eurofins
Description: as §1

D1 dopamine receptor = biological target: T9, D1 dopamine receptor (Homo sapiens, UniProt P21728); assay: Radioligand binding assay
T9 construct: Eurofins
Description: as §1

5-HT7 receptor = biological target: T10, 5-HT7 receptor (Homo sapiens, UniProt P34969); assay: Radioligand binding assay
T10 construct: Eurofins
Description: as §1

α1B adrenoceptor = biological target: T11, α1B adrenoceptor (Homo sapiens, UniProt P35368); assay: Radioligand binding assay
T11 construct: Eurofins
T11 sequence (P35368 1-520): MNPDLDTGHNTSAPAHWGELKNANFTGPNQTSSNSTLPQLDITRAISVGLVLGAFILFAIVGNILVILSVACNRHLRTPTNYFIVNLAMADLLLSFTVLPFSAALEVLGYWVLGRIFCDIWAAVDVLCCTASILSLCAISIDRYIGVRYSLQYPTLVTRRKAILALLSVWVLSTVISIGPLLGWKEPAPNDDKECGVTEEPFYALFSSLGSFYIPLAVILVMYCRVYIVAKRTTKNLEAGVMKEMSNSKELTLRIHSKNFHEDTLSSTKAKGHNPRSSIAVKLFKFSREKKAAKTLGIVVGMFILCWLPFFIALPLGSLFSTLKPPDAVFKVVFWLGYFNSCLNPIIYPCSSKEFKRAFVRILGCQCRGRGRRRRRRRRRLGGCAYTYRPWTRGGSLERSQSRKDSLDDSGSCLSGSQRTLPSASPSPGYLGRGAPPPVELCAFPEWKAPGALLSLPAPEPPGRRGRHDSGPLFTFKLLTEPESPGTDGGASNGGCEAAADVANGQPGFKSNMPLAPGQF
Description: as §1

[4] = Plasma toxicokinetic analysis after twice daily oral dosing; format: in vivo; conditions: rat, n = 5
Description: All in vivo experimental procedures were conducted in accordance with United Kingdom legislation (Animals (Scientific Procedures) Act, 1986) and were compliant with the ARRIVE guidelines. 8–10 week old male (210–230 g) Crl:WI Han Wistar rats (Charles River Laboratories Ltd, UK) were acclimatised to the facility for 10 days and then randomised to groups based on bodyweight.
A whole blood sample (32 µL) was collected via a tail vein prick into a K2EDTA treated capillary tube, centrifuged at 1,500 g for 10 min at 4 °C, and plasma collected using a micropipette (non-EDTA Ref.no. 172292, Vitrex Medical A/S, Denmark). Samples were collected on Day 1 and Day 7 at 1 h, 2 h, 4 h, 8 h (pre-second dose), 10 h and 24 h post the first dose.
Calibration and quality control samples were prepared in rat plasma with a target concentration range for quantification of 0.1 – 100 µmol/L. Sample preparation: 8 µl of plasma were diluted in 92 µl of 5% (w/v) bovine serum albumin in phosphate buffer and gently shaken for 10 min before 5 min centrifugation at 2400 g at 4°C. 25 µL were transferred to new tubes and 150 µl of acetonitrile containing an internal standard were added for protein precipitation. After thorough mixing and centrifugation for 5 min at 2400 g and 4°C, 75 µl of supernatant were transferred into new tubes and diluted in 150 µL water/HCOOH (100:0.2, v/v) then thoroughly vortexed and again centrifuged for 5 min at 2400 g and 4°C. 1.5 µl of the supernatant were injected for LC-MS/MS analysis utilizing an Acquity UPLC BEH C18, 2.1x50 […], 1.7 µ column at 60° C. Mobile phase A: Acetonitrile/HCOOH (100/0.2, v/v) and B: water/HCCOH (100/0.2, v/v). Flow rate: 0.75 mL/min.

MTAP KO HCT116 xenograft = system: MTAP KO HCT116 xenograft; parameters: method as in Atkinson et al. [2024]; conditions: ref Atkinson et al. [2024], cited from earlier work
THP-1 = assay: THP1 cytotoxicity; format: cell-based; conditions: read-out: THP-1 Cytotox IC50
Text: Full curve IC50 (µM) for hERG (human ether-a-go-go-related gene) and the cardiac ion channel panel (sodium and potassium ion channels; Nav1.5, IKs, Kv4.3), along with the L-type Calcium channel (Cav-1.2 Ver; verapamil, DIL; diltiazem), HepG2 C3A 3D spheroids, HepG2 C3A (2D cultures in glucose or galactose media), and THP1 cytotoxicity.

Adenosine Transporter = biological target: T12, Adenosine Transporter (Homo sapiens, UniProt Q99808); assay: Functional assay; format: cell-based
T12 construct: Eurofins
Description: as §1

T12 sequence (Q99808 2-456 limits assumed): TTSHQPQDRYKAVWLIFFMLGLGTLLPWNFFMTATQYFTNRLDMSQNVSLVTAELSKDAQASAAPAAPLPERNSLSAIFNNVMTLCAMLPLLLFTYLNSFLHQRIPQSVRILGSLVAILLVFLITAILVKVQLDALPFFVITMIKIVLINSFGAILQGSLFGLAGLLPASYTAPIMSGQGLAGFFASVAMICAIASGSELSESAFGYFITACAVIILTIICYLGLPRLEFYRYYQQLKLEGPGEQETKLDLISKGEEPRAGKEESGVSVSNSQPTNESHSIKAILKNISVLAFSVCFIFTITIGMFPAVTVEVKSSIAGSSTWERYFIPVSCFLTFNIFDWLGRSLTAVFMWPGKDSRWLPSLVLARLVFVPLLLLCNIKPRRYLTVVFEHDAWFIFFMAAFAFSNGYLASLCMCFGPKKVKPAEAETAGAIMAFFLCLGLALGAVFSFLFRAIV
T4 sequence (P30542 whole entry): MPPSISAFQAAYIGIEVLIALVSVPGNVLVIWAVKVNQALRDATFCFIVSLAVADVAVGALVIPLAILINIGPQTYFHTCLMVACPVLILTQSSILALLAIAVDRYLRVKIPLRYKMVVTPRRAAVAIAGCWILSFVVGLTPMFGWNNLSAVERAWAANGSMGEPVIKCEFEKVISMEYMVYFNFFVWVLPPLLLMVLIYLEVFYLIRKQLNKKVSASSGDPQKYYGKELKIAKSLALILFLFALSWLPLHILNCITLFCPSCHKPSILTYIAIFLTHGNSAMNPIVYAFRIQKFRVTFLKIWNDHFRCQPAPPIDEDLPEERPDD
T1 sequence (P29274 whole entry): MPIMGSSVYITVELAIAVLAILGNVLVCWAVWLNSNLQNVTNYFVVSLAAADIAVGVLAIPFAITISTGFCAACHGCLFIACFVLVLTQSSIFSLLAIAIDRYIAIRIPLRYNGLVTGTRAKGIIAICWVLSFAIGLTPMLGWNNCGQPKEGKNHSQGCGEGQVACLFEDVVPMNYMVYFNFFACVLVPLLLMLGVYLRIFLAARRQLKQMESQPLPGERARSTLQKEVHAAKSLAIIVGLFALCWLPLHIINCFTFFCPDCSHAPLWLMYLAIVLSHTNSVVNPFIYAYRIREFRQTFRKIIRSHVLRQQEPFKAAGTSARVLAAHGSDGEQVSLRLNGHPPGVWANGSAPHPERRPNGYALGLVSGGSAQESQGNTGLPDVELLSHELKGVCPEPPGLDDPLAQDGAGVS
T3 sequence (P41145 whole entry): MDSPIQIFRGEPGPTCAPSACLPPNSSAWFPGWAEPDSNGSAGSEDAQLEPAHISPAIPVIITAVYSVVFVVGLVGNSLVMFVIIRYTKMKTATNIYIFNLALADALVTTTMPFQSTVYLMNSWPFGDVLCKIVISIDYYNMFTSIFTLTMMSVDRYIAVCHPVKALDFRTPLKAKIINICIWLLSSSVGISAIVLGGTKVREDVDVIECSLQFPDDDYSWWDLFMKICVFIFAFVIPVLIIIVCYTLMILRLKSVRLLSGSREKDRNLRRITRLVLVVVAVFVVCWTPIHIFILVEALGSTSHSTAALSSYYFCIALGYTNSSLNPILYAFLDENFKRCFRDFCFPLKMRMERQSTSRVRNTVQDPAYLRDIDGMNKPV
T10 sequence (P34969 whole entry): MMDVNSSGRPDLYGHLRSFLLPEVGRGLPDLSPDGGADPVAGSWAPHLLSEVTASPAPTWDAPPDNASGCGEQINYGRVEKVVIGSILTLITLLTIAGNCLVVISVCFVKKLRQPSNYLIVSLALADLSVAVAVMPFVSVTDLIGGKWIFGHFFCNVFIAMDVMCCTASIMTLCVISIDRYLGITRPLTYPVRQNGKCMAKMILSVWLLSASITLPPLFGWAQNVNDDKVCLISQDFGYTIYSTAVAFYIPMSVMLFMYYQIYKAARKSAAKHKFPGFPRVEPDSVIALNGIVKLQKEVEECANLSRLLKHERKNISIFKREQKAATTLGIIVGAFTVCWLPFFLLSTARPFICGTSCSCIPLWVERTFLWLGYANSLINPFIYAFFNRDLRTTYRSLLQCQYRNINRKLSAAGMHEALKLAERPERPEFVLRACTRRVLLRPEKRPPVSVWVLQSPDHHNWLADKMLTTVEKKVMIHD
T2 sequence (P11229 whole entry): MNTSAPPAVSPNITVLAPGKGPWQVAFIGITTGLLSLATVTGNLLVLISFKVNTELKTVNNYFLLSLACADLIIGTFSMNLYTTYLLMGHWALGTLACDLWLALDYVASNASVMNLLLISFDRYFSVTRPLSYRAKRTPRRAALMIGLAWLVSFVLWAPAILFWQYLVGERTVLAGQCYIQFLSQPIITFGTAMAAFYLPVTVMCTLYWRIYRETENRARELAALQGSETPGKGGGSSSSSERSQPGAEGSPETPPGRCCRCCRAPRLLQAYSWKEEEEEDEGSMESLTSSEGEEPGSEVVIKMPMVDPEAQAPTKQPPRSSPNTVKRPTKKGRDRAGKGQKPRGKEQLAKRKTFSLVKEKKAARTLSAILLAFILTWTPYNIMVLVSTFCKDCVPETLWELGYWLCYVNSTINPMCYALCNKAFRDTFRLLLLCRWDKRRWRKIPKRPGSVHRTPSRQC
T5 sequence (P41143 whole entry): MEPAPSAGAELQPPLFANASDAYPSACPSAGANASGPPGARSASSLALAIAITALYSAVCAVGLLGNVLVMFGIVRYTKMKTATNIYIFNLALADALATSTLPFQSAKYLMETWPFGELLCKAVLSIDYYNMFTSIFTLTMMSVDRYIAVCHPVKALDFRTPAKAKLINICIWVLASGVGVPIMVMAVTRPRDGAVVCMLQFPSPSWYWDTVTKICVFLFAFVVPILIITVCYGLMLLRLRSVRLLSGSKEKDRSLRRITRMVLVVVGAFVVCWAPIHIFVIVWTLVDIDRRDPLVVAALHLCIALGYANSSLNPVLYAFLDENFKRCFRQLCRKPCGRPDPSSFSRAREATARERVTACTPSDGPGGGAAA
T6 sequence (P32238 whole entry): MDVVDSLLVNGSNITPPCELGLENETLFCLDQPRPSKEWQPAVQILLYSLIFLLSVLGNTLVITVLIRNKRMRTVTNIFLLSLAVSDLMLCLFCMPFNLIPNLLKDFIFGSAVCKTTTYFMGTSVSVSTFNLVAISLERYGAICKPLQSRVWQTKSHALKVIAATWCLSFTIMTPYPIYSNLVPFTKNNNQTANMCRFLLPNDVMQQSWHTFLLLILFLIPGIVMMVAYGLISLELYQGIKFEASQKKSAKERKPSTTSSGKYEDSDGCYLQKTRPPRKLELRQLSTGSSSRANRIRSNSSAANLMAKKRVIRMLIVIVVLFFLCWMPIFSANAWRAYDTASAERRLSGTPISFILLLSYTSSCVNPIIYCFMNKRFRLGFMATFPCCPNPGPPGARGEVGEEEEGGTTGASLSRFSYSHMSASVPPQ
T9 sequence (P21728 whole entry): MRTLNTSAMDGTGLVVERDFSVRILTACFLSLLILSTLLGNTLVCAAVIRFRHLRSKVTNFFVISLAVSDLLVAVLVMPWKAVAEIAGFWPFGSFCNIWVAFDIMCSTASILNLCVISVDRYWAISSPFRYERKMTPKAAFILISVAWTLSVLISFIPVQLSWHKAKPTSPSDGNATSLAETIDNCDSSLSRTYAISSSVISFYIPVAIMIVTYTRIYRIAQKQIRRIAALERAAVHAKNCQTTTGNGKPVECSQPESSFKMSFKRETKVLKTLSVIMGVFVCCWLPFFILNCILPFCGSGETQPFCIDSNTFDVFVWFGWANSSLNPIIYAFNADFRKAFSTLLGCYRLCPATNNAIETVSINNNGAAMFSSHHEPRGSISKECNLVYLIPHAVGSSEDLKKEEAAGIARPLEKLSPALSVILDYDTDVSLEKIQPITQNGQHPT
T7 sequence (P23975 whole entry): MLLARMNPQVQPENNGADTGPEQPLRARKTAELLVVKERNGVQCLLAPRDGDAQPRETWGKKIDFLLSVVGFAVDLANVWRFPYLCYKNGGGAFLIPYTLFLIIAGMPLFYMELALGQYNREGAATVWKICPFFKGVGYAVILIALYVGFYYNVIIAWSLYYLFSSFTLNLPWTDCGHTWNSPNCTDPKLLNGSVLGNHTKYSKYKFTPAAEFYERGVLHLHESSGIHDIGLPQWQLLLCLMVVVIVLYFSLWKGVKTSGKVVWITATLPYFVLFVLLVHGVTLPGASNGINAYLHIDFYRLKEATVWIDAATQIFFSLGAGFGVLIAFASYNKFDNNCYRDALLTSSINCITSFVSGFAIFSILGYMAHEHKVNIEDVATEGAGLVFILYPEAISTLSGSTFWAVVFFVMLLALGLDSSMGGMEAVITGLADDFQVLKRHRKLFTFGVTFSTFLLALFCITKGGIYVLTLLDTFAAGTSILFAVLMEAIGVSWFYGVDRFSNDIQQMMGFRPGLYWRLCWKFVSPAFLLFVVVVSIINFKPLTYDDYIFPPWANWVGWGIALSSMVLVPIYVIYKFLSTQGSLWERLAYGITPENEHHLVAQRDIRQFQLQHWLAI

Structure (SMILES): Cn1cc2cc(-c3cc4[nH]nc(C5CC5)c4n(-c4ccc(OC(F)F)cc4)c3=O)ccc2n1 [AZ’9567]
- Ki (A2A adenosine receptor): 2.2 µM
- Ki (M1 muscarinic receptor): 69.7 µM
- Ki (κ opioid receptor): 6 µM
- Ki (A1 adenosine receptor): 2.6 µM
- Ki (δ opioid Receptor): 12.8 µM
- Ki [1]: 25.3 µM
- Ki [2]: 33.3 µM
- Ki [3]: 22.6 µM
- Ki (D1 dopamine receptor): 35 µM
- Ki (5-HT7 receptor): 2.9 µM
- Ki (α1B adrenoceptor): 28.9 µM
- Free AUC24h ([4]; 3 mg/kg BID, day 1, mean ± SD): 0.69 ± 0.07 µM·h
- Free Cmax ([4]; 3 mg/kg BID, day 1, mean ± SD): 40 ± 4 nM
- Free Cmin24h ([4]; 3 mg/kg BID, day 1, mean ± SD): 10 ± 1 nM
- Free AUC24h ([4]; 3 mg/kg BID, day 7, mean ± SD): 0.76 ± 0.11 µM·h
- Free Cmax ([4]; 3 mg/kg BID, day 7, mean ± SD): 50 ± 10 nM
- Free Cmin24h ([4]; 3 mg/kg BID, day 7, mean ± SD): 10 ± 2 nM
- Free AUC24h ([4]; 10 mg/kg BID, day 1, mean ± SD): 2.6 ± 1.1 µM·h
- Free Cmax ([4]; 10 mg/kg BID, day 1, mean ± SD): 210 ± 60 nM
- Free Cmin24h ([4]; 10 mg/kg BID, day 1, mean ± SD): 40 ± 20 nM
- Free AUC24h ([4]; 10 mg/kg BID, day 7, mean ± SD): 3.9 ± 0.70 µM·h
- Free Cmax ([4]; 10 mg/kg BID, day 7, mean ± SD): 270 ± 110 nM
- Free Cmin24h ([4]; 10 mg/kg BID, day 7, mean ± SD): 80 ± 30 nM
- Free AUC24h ([4]; 30 mg/kg BID, day 1, mean ± SD): 12 ± 1.1 µM·h
- Free Cmax ([4]; 30 mg/kg BID, day 1, mean ± SD): 870 ± 190 nM
- Free Cmin24h ([4]; 30 mg/kg BID, day 1, mean ± SD): 140 ± 40 nM
- Free AUC24h ([4]; 30 mg/kg BID, day 7, mean ± SD): 9.9 ± 2.2 µM·h
- Free Cmax ([4]; 30 mg/kg BID, day 7, mean ± SD): 680 ± 190 nM
- Free Cmin24h ([4]; 30 mg/kg BID, day 7, mean ± SD): 150 ± 50 nM
- depletion of SAM (MTAP KO HCT116 xenograft; 20 mg/kg BID, day 24): > 90%
- depletion of SDMA (MTAP KO HCT116 xenograft; 20 mg/kg BID, day 24): > 90%
- anti-tumour response (MTAP KO HCT116 xenograft; 20 mg/kg BID): robust anti-tumour response
- anti-tumour and PD modulation (SDMA and SAM) (MTAP KO HCT116 xenograft; 3, 10, 30 mg/kg BID): robust anti-tumour and PD modulation
- IC50 (THP-1): > 50 µM
- Pharmacological mode of action (Adenosine Transporter): Antagonist
